PMC9551036, “A selective and orally bioavailable VHL-recruiting PROTAC achieves SMARCA2 degradation in vivo” (Nature Communications, 2022)
Values joined by “and” are separate entries in the source; they are usually repeats but may differ in a detail not shown here. Identical values can stand only once. Like-named read-outs stand apart in the source and are kept apart here.

Legend:
SMARCA2 = SMARCA2 (Homo sapiens, UniProt P51531); assay: SMARCA2 capillary electrophoresis protein assay in other cell lines (A549, NCI-H1568, HCT116, LU99, HCC-364, HCT-15, HCC4006, SK-N-AS); format: cell-based; design: endogenous in cells; host or cells: RKO, NCI-H1568, A549, HCT116, LU99, HCC-364, HCT-15, HCC4006, SK-N-AS
Description: 130,000–200,000 cells were seeded in 24-well plates and incubated until settled down or overnight. Compounds were dissolved in DMSO and added to cells in indicated concentrations using a digital dispenser following an optional media change. Cells were incubated for 4 or 18 h as indicated. For SMARCA2/4 half-life determination, 150,000 or 200,000 cells were seeded in 24-well plates. The next day, 50 µg/ml cycloheximide (Sigma) was added and cells were incubated for 1–24 h. For SMARCA2/4 re-synthesis measurements, 200,000 cells were seeded in 24-well plates. The next day, 100 nM compound 6 was added for 4 h to degrade SMARCA2/4, and a sample was taken as baseline for normalisation. To allow re-synthesis, a VHL binder (compound 32, 25 or 50 µM) was then added for 3 or 24 h. Medium was removed, cells were washed with PBS and lysed with 80 µl Lysis Buffer (MSD Tris Lysis Buffer (#R60TX-2) + Halt Inhibitor Cocktail (100x) + Benzonase 0.5 µL/ml). Samples were frozen at −80 °C and thawed at room temperature before use. Samples were transferred to a V-bottom plate and insoluble debris was pelleted by centrifugation for 5 min at maximum speed. The supernatant was transferred to a fresh plate. Master Mix and Ladder were prepared according to manufacturer’s instructions for 12–230 kDa Wes Separation Module, 8 × 25 capillary cartridges, Protein Simple #SM-W004 with Anti-Rabbit Detection Module for Wes, Peggy Sue or Sally Sue, Protein Simple #DM-001. 4.8 µl lysate were mixed with 1.2 µl Master Mix to achieve a protein concentration of ~0.5 µg/µl. Antibodies were diluted in Antibody Diluent II (SMARCA2 Sigma #HPA029981 RRID:AB_10602406 1:25–100, SMARCA4 Cell Signalling #49360 clone D1Q7F RRID:AB_2728743 1:15–120 or Abcam #ab110641 clone EPNCIR111A RRID:AB_10861578 1:60, GAPDH Abcam #ab9485 RRID:AB_307275 1:250). Wes plates were prepared and run according to manufacturer’s instructions. Proteins were quantified with accompanying Compass Software. SMARCA2/4 protein levels were normalised to GAPDH. […] Where applicable, curves were fitted using a 4-parametric logistic model.

Plasma protein binding = format: in vitro ADME
Description: Binding of compound to plasma proteins was determined by equilibrium dialysis of 3 µmol/L compound in plasma (or plasma dilutions in PBS) against PBS through an 8 kDa molecular-weight cut-off cellulose membrane (RED device, Thermo Fisher) at 37 °C for 5 h. After incubation, aliquots from donor and acceptor compartments were precipitated and the concentrations in the supernatants were determined by quantitative LC-MS/MS. Calibration and quality control samples were prepared using blank plasma and internal standard. The fraction unbound was calculated as ratio of the compound concentration in the acceptor compartment to the concentration in the donor compartment.

P-gp = assay: Bidirectional permeability measurement in Caco-2 cells; format: in vitro ADME; settings: human, Caco-2, pH 7.4, with zosuquidar 5 µM
Summary of the method: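 Caco-2 monolayers grown 14–21 days, preincubated 24 h with medium containing 1 µM compound; bidirectional transport sampled up to 2 h, quantified by LC-MS/MS, ± 5 µM zosuquidar (P-gp inhibitor). Papp,AB and Papp,BA from receiver amount, donor C0, area and time; efflux ratio = Papp,BA/Papp,AB (duplicate means). TEER checked per plate.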

[1] = SK-N-AS_SM2, four-parameter fit

Sequence of SMARCA2 (P51531 whole entry): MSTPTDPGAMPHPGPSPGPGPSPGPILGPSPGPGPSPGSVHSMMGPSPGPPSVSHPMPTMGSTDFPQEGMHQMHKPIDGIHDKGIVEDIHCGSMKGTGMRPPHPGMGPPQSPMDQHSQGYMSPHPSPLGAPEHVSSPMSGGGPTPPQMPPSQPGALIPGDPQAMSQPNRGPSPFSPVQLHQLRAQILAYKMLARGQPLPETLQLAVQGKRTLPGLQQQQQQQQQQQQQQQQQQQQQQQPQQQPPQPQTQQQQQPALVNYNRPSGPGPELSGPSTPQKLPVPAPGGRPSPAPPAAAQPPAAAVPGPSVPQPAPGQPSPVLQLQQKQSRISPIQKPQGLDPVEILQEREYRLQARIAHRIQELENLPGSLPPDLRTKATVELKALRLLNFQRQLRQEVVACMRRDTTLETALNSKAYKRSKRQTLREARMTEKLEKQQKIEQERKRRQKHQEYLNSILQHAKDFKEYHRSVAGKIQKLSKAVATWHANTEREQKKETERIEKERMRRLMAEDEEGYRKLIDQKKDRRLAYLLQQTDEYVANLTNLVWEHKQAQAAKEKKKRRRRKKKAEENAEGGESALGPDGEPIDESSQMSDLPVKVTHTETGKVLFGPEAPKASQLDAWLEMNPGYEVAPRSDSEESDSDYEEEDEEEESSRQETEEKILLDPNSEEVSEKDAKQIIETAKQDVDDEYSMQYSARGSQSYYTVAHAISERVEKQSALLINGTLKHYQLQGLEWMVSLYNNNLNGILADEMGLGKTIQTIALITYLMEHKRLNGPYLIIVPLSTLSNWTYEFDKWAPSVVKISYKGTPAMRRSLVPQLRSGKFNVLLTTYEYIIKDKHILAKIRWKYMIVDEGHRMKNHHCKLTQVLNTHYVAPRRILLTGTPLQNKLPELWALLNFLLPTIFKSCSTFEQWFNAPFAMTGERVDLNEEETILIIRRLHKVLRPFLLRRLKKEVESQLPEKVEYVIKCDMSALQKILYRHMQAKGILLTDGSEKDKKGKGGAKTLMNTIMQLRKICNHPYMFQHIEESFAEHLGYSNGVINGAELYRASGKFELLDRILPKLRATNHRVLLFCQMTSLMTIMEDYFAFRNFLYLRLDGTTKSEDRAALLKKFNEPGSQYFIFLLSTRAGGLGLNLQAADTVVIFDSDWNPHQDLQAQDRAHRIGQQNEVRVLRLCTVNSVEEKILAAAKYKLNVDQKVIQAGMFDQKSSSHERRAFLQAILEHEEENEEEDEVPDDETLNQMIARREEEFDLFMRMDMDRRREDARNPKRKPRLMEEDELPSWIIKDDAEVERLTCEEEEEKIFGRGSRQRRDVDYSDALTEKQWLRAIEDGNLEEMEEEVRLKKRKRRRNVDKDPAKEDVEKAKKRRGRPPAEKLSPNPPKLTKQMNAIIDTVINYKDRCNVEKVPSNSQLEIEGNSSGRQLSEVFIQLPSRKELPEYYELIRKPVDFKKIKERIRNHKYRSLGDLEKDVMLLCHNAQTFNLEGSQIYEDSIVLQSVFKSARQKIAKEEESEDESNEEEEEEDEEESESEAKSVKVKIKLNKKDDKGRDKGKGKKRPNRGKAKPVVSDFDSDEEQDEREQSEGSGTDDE

Cc1ncsc1-c1ccc(C(CCC(C)CCN2CCC(c3ccc4c(c3)n(C3CCCC3)c3nc(=O)c5c(Br)cccc5n43)CC2)NC(=O)C2CC(O)CN2C(=O)C(NC(=O)C2(F)CC2)C(C)(C)C)cc1 (stereo not drawn) [ACBI2]
DC50 (SMARCA2; LU99_SM2, protein degradation, four-parameter fit, read-out: EC50 (the source's name)): 6.18 nM | Dmax (SMARCA2; NCI-H1568 (4 h), mean ± SD): 86 ± 6% | DC50 (SMARCA2; NCI-H1568 (4 h), mean ± SD, read-out: SMARCA2 DC50): 13 ± 14 nM | Bottom (% protein remaining, four-parameter fit) (SMARCA2; NCI-H1568, 4h): 6.286% | HillSlope (protein remaining) (SMARCA2; NCI-H1568, 4h): -1.738 | LogEC50 (protein remaining) (SMARCA2; NCI-H1568, 4h): -8.191 log10(mol/l) | Top (% protein remaining, four-parameter fit) (SMARCA2; NCI-H1568, 4h): 87.56% | % protein remaining (SMARCA2; NCI-H1568, 4h, conc 1.00001e-10 mol/l): 96.6234% and 94.5884% | % protein remaining (SMARCA2; NCI-H1568, 4h, conc 1.52416e-10 mol/l): 71.8933% | % protein remaining (SMARCA2; NCI-H1568, 4h, conc 3.1623e-10 mol/l): 72.7669% and 75.3978% | % protein remaining (SMARCA2; NCI-H1568, 4h, conc 4.57247e-10 mol/l): 96.5512% | % protein remaining (SMARCA2; NCI-H1568, 4h, conc 1.00001e-9 mol/l): 90.5385% and 93.373% | % protein remaining (SMARCA2; NCI-H1568, 4h, conc 1.37174e-9 mol/l): 95.3256% | % protein remaining (SMARCA2; NCI-H1568, 4h, conc 3.1623e-9 mol/l): 36.986% | % protein remaining (SMARCA2; NCI-H1568, 4h, conc 4.11523e-9 mol/l): 94.3111% | % protein remaining (SMARCA2; NCI-H1568, 4h, conc 1.00001e-8 mol/l): 19.3906% and 27.9502% | % protein remaining (SMARCA2; NCI-H1568, 4h, conc 1.23457e-8 mol/l): 37.9279% | % protein remaining (SMARCA2; NCI-H1568, 4h, conc 3.1623e-8 mol/l): 8.319% and 13.4554% | % protein remaining (SMARCA2; NCI-H1568, 4h, conc 3.7037e-8 mol/l): 11.4262% | % protein remaining (SMARCA2; NCI-H1568, 4h, conc 1.11111e-7 mol/l): 8.194% | % protein remaining (SMARCA2; NCI-H1568, 4h, conc 3.1623e-7 mol/l): 2.032% and 3.543% | % protein remaining (SMARCA2; NCI-H1568, 4h, conc 3.33333e-7 mol/l): 6.383% | % protein remaining (SMARCA2; NCI-H1568, 4h, conc 1e-6 mol/l): 9.793% | % protein remaining (SMARCA2; NCI-H1568, 4h, conc 1.00001e-6 mol/l): 2.382% and 3.308% | % protein remaining (SMARCA2; NCI-H1568, 4h, conc 3.1623e-6 mol/l): 2.029% and 3.947% | DC50 (SMARCA2; NCI-H1568, 4h, individual replicates, read-out: NCI-H1568 (4h) SMARCA2 DC50): 4.72 nM and 32.5 nM and 13 nM | DC50 (SMARCA2; NCI-H1568, 4h, read-out: EC50 (protein remaining)): 6.44 nM | Bottom (% protein remaining, four-parameter fit) (SMARCA2; NCI-H1568, 8h): 6.315% | HillSlope (protein remaining) (SMARCA2; NCI-H1568, 8h): -1.161 | LogEC50 (protein remaining) (SMARCA2; NCI-H1568, 8h): -8.44 log10(mol/l) | Top (% protein remaining, four-parameter fit) (SMARCA2; NCI-H1568, 8h): 119.8% | % protein remaining (SMARCA2; NCI-H1568, 8h, conc 4.57247e-10 mol/l): 112.24% | % protein remaining (SMARCA2; NCI-H1568, 8h, conc 1.37174e-9 mol/l): 87.7845% | % protein remaining (SMARCA2; NCI-H1568, 8h, conc 4.11523e-9 mol/l): 63.6536% | % protein remaining (SMARCA2; NCI-H1568, 8h, conc 1.23457e-8 mol/l): 24.8248% | % protein remaining (SMARCA2; NCI-H1568, 8h, conc 3.7037e-8 mol/l): 13.998% | % protein remaining (SMARCA2; NCI-H1568, 8h, conc 1.11111e-7 mol/l): 8.2% | % protein remaining (SMARCA2; NCI-H1568, 8h, conc 3.33333e-7 mol/l): 6.313% | % protein remaining (SMARCA2; NCI-H1568, 8h, conc 1e-6 mol/l): 7.6382% | % protein remaining (SMARCA2; NCI-H1568, 8h, conc 3e-6 mol/l): 6.726% | DC50 (SMARCA2; NCI-H1568, 8h, read-out: EC50 (protein remaining)): 3.63 nM | Bottom (% protein remaining, four-parameter fit) (SMARCA2; NCI-H1568, 18h): 2.272% | HillSlope (protein remaining) (SMARCA2; NCI-H1568, 18h): -0.7655 | LogEC50 (protein remaining) (SMARCA2; NCI-H1568, 18h): -9.556 log10(mol/l) | Top (% protein remaining, four-parameter fit) (SMARCA2; NCI-H1568, 18h): 215.6% | % protein remaining (SMARCA2; NCI-H1568, 18h, conc 1.52416e-10 mol/l): 134.073% | % protein remaining (SMARCA2; NCI-H1568, 18h, conc 4.57247e-10 mol/l): 84.9656% | % protein remaining (SMARCA2; NCI-H1568, 18h, conc 1.37174e-9 mol/l): 57.0296% | % protein remaining (SMARCA2; NCI-H1568, 18h, conc 4.11523e-9 mol/l): 23.442% | % protein remaining (SMARCA2; NCI-H1568, 18h, conc 1.23457e-8 mol/l): 12.5025% | % protein remaining (SMARCA2; NCI-H1568, 18h, conc 3.7037e-8 mol/l): 5.834% | % protein remaining (SMARCA2; NCI-H1568, 18h, conc 1.11111e-7 mol/l): 3.6967% | % protein remaining (SMARCA2; NCI-H1568, 18h, conc 3.33333e-7 mol/l): 2.8858% | % protein remaining (SMARCA2; NCI-H1568, 18h, conc 1e-6 mol/l): 3.302% | % protein remaining (SMARCA2; NCI-H1568, 18h, conc 3e-6 mol/l): 4.787% | DC50 (SMARCA2; NCI-H1568, 18h, read-out: EC50 (protein remaining)): 0.278 nM | Bottom (best-fit value, % protein remaining) (SMARCA2; [1]): 20.4% | HillSlope (SMARCA2; [1]): -1.475 | LogEC50 (SMARCA2; SK-N-AS_SM2, log10 of concentration in mol/l): -7.468 | DC50 (SMARCA2; SK-N-AS_SM2, protein degradation, four-parameter fit, read-out: EC50 (the source's name)): 34 nM | PPB fu 10% Human (Plasma protein binding; 10% human): < 0.054% | PPB fu 10% Rat (Plasma protein binding; 10% rat): < 0.053% and < 0.048% | fraction unbound at 5 h, 3 µmol/L (Plasma protein binding; bovine, 10% calf plasma dilution in PBS, 10% calf, fraction unbound, read-out: PPB fu 10% Calf): 0.0035 | fraction unbound at 5 h, 3 µmol/L (Plasma protein binding; bovine, 10% plasma (plasma dilution in PBS), 10% calf, read-out: PPB fu 10% Calf): 0.00349 | fraction unbound at 5 h, 3 µmol/L (Plasma protein binding; human, 10% plasma (plasma dilution in PBS), 10% human, read-out: PPB fu 10% Human): < 0.00045 | fraction unbound at 5 h, 3 µmol/L (Plasma protein binding; human, plasma, human, fraction unbound, read-out: PPB fu Human): < 0.0005 | fraction unbound at 5 h, 3 µmol/L (Plasma protein binding; mouse, 10% plasma (plasma dilution in PBS), 10% mouse, read-out: PPB fu 10% Mouse): < 0.00051 | fraction unbound at 5 h, 3 µmol/L (Plasma protein binding; mouse, plasma, mouse, fraction unbound, read-out: PPB fu Mouse): < 0.0005 | fraction unbound at 5 h, 3 µmol/L (Plasma protein binding; rat, 10% plasma (plasma dilution in PBS), 10% rat, read-out: PPB fu 10% Rat): < 0.00054 | fraction unbound at 5 h, 3 µmol/L (Plasma protein binding; rat, plasma, rat, fraction unbound, read-out: PPB fu Rat): < 0.0005 | Papp A→B at 1 µM (P-gp; Modified Caco-2 + PGPi (Zosuquidar), read-out: Modified Caco-2 + PGPi (Zosuquidar) Pab): 8 ± 4 ×10⁻⁶ cm/s | Papp B→A at 2 h, 1 µM (P-gp; Modified Caco-2, b to a, + PGPi (Zosuquidar), read-out: Modified Caco-2 Pba + PGPi (Zosuquidar)): 11 ×10⁻⁶ cm/s
